From patent publication US9427468B2, “Compositions and methods for diagnosing and treating community-acquired methicillin-resistant Staphylococcus aureus” (priority 2007, dated 2016) come the findings set out here.

What all share (format): cell-based, Staphylococcus aureus
Experiment [1] concerns CA-MRSA Strains (30 clinical isolates). In words: MIC and synergy assay, clinical isolates. The source says: Analysis of the Type IV SCCmec element, virtually identical between MW2 and USA300, allowed for identification of four genes conserved in the CA-MRSA background, but not in other known MRSA genomes. These four genes therefore served as biomarkers that could be used to distinguish CA-MRSA strains from HA-MRSA strains. PCR of chromosomal DNAs with oligonucleotides specific for mecA, pvl (Lina, G. et al. 1999. Clin. Infect. Dis. 29:1128-1132) and the four specific genes for CA-MRSAs (MW0042/USA300_0041; MW0043/USA300_0042; MW0046/USA300_0045; and MW0047/USA300_0046) identified 30 isolates positive for these genes. […] The code was subsequently broken, confirming that all 30 isolates, designated as CA-MRSA, were from patients with primary skin infections and annotated by the donating hospital as CA-MRSA while the other were blood isolates designated as HA-MRSA. […] The synergistic inhibitory activity of the combined treatment also was further tested on 30 MRSA isolates from complicated skin and soft tissue infections, with CA-MRSA being the most common etiologic agent.
Two independent batches of clinical isolates were obtained from the Dartmouth Hitchcock Medical Center, Lebanon, N.H. The first group included 200 blood MRSA isolates sub-cultured on 5% Columbia sheep blood agar (Remel). The second group involved 30 MRSA isolates from complicated skin and soft tissue infections (CSSTI) similarly sub-cultured. All strains were grown overnight in CSMHB broth and streaked on selective mannitol salt agar plates for confirmation. DNA extraction was performed on 500 μl of cultures. PCR was performed on all DNAs with oligonucleotides specific for mecA, pvl and the four genes found to be specific for the SCCmec type IV in CA-MRSA: MW0042, MW0043, MW0046, and MW0047. DNA amplification of mecA was used as a control to confirm that all strains were MRSA. DNAs from S. epidermidis, E. coli and S. pneumoniae were used as negative controls to confirm the specificity of the oligonucleotides. After amplification for 30 cycles (5 min of denaturation at 95° C., 30 s of annealing at 54° C. and 1 min extension at 72° C.), PCR products were resolved by electrophoresis through 1.5% agarose gels stained with ethidium bromide. Given the number of clinical isolates tested, only a small random group of PCR products were subjected to DNA sequencing to confirm specificity. S. aureus strain COL, Mu50, N315 and MRSA252 all tested negative for all MW0042, MW0043 and MW0047 and pvl while USA300 and MW2 were positive controls for this PCR reaction. The primer sequences for mecA, MW0042, MW0043 and MW0047 were as follows: mecA-UP 5′-GGTACTGCTATCCACCCTCAAA-3′ (SEQ ID NO:19), mecA-LOW 5′-TTACGACTTGTTGCATACCATCA-3′ (SEQ ID NO:20), MW0042-UP 5′-ATTGGCAGAAATAAACAAAACG-3′ (SEQ ID NO:21), MW0042-LOW 5′-TCGTTTAATTTTTTCCCAAACTC-3′ (SEQ ID NO:22), MW0043-UP 5′-GTTTCAGTTGGTGTTGAAGATCC-3′ (SEQ ID NO:23), MW0043-LOW 5′-CCTATAATTTTCGATAGATTCGTG-3′ (SEQ ID NO:24), MW0047-UP 5′-AGGCATATAAAGAAGCAGGAAAG-3′ (SEQ ID NO:25), MW0047-LOW 5′-CACACTGTTTTCCTACGATATTTG-3′ (SEQ ID NO:26).
Minimum inhibitory concentrations and minimum bactericidal concentrations (MIC and MBC, respectively) were determined for each isolate in triplicate by microdilution techniques with an inoculum of 5×10^5 CFU/ml according to the Clinical and Laboratory Standards Institute guidelines. Aliquots (5 μl) from clear wells were plated onto TSA drug-free plates for the determination of MBCs, followed by incubation at 37° C. for 24 and 48 hours. For the mutant strains, each one of the three clones was tested. MIC data were reported as median values from at least three independent experiments for each antibiotic. Also, strains containing pEPSA5-based plasmids were tested with and without xylose induction, but chloramphenicol was not added to avoid interference with beta-lactam resistance evaluation. […] The correct inocula were confirmed by plating serial dilutions on agar. […]

In another experiment the test system is COL wild-type. In words: MIC by microdilution (CLSI). The source says: (§1) The present invention was described based on a series of experiments examining the biological basis for CA-MRSA strains versus HA-MRSA strains, focusing on the role of PBPs in CA-MRSA and generally in β-lactam resistance. Experiments were first performed using mutants of various PBPs. In-frame deletion mutants of the genes encoding PBP3 (MW1504) and PBP4 (MW0604), pbp3 and pbp4 respectively, were generated in the CA-MRSA strain MW2 and in HA-MRSA strain COL using the temperature-sensitive allelic replacement vector pMAD (Arnaud, M. et al. 2004. Appl. Environ. Microbiol. 70:6887-6891). PBP4 was also deleted in the HA-MRSA strains Mu50 and N315 and in the CA-MRSA strain USA300. […] Minimum inhibitory concentrations (MICs) were determined according to the Clinical and Laboratory Standards Institute and are a standard method for defining antibiotic efficacy against different organisms. Bacteria, grown to an OD650=1, were added to cation-supplemented Mueller Hinton broth (CSMHB) to achieve a final concentration of 5×10^5 CFU/ml.
Although PBP4, similar to PBP2A, binds with low affinity to many β-lactams, PBP4 binds cefoxitin, a semi-synthetic β-lactam derived from cephamycin C, with high affinity (Nair, S. R. and C. E. Cherubin. 1978. Antimicrob. Agents Chemother. 14:866-875).
(§2) Minimum inhibitory concentrations and minimum bactericidal concentrations (MIC and MBC, respectively) were determined for each isolate in triplicate by microdilution techniques with an inoculum of 5×10^5 CFU/ml according to the Clinical and Laboratory Standards Institute guidelines. Aliquots (5 μl) from clear wells were plated onto TSA drug-free plates for the determination of MBCs, followed by incubation at 37° C. for 24 and 48 hours. For the mutant strains, each one of the three clones was tested. MIC data were reported as median values from at least three independent experiments for each antibiotic. Also, strains containing pEPSA5-based plasmids were tested with and without xylose induction, but chloramphenicol was not added to avoid interference with beta-lactam resistance evaluation. […] The correct inocula were confirmed by plating serial dilutions on agar.
A general note: Broth dilution looks for growth in wells or tubes with falling amounts of substance.

The next experiment deals with N315 wild-type. In words: MIC by microdilution (CLSI).
Description: as §1, §2

The test system of the next experiment is MW2 ex Δpbp4. In words: MIC by microdilution (CLSI).
Description: as §1, §2

Where [2] appears, read: Staphylococcus aureus, read-out: MICs.

Converted amounts (≈) assume the structure as drawn. Marks after values point to notes of the source that are not given here.

Regarding `CO[C@@]1(NC(=O)Cc2cccs2)C(=O)N2C(C(=O)O)=C(COC(N)=O)CS[C@@H]21` [CX, cefoxitin], the MIC amounted to 64 µg/mL in experiment [1] (Staphylococcus aureus, MRSA, 48 h, read-out: MICs 48 hr); 128 µg/mL (≈ 299 µM) in the experiment on COL wild-type (setting [2]); 64 µg/mL (≈ 150 µM) with N315 wild-type (setting [2]); 16 µg/mL (≈ 37.4 µM) with MW2 ex Δpbp4 (setting [2]).

As to `Cc1onc(-c2ccccc2)c1C(=O)N[C@@H]1C(=O)N2[C@@H]1SC(C)(C)[C@@H]2C(=O)O` [OX, oxacillin], the “MICs 48 hr” value is 64^b μg/ml in experiment [1] (30 CA-MRSA clinical isolates, median values, 48 hr) and 256 µg/mL in the experiment with COL wild-type (COL, 48 hr, for combination: MIC of oxacillin with ¼ MIC cefoxitin). Further, the MICs was 256 µg/mL in the experiment with COL wild-type (Table 1, COL wild-type); 256 µg/mL against N315 wild-type (Table 1, N315 wild-type); 2 µg/mL against MW2 ex Δpbp4 (Table 1, MW2 ex Δpbp4). Moreover, in the experiment on MW2 ex Δpbp4 (MW2 ex Δpbp4 versus MW2 ex), the “reduction in oxacillin MIC for the pbp4 mutant” value is 64 fold.
